Reference: patent US10010608B2, “Combination therapies for cancer” (MERCK SHARP & DOHME CORP., priority 2013, dated 2018)

System: CT-26 murine colorectal adenocarcinoma cell line
Assay: Anti-tumor response of CT-26 tumor-bearing BALB/c mice (syngeneic model)
Type: in vivo, mouse
Source text: This experiment compared the anti-tumor response of tumor-bearing mice to treatment with one of three regimens: (i) monotherapy with a murine anti-mouse PD-1 monoclonal antibody of murine isotype IgG1 (Anti-PD1); (ii) monotherapy with trametinib and (iii) combination therapy with anti-PD1 and trametinib administered concurrently. Murine isotype IgG1 is the murine counterpart isotype to human isotype IgG4.
While human tumor cells or tumor explants can be grown in immunodeficient animals as xenografts, they cannot be used for testing immunotherapeutics because of the lack of a functional immune system. For a meaningful evaluation of immunotherapeutics or combination of immunotherapeutics with other agents, it is necessary to use a syngeneic model in which syngeneic tumors are grown in animals with an intact immune system. CT-26 is a murine colorectal adenocarcinoma cell line syngeneic to the BALB/c mouse strain. CT-26 carries a KRAS mutation that activates the mitogen-activating protein kinase pathway, which makes it a relevant model to evaluate sensitivity to trametinib (an inhibitor of mitogen-activated protein kinase kinase). This is also a relevant model system for evaluating the mechanism of action for an anti-PD-1 antibody because of the translatable molecular profile of this tumor post-anti-PD-1 therapy. […]

CC(=O)Nc1cccc(-n2c(=O)n(C3CC3)c(=O)c3c(Nc4ccc(I)cc4F)n(C)c(=O)c(C)c32)c1 [trametinib, N-{3-[3-cyclopropyl-5-(2-fluoro-4-iodo-phenylamino)6,8-dimethyl-2,4,7-trioxo-3,4,6,7-tetrahydro-2H-pyrido[4,3-d]pyrimidin-1-yl]phenyl}acetamide]
effect of trametinib on the anti-tumor effects of Anti-PD1 (combination treatment arm): did not appear to antagonize
animals with complete regression (CR) (end of the 23 day treatment period, 12 mice per group): no CRs
